Assays:
human hepatocytes = experiment: Metabolic stability in human hepatocytes; conditions: 1 μM test compound, 50% human serum, percentage of liver blood flow
SOS1 and KRAS G12D = SOS1 and KRAS G12D (Homo sapiens (Human), UniProt Q07889); experiment: KRAS::SOS1 AlphaScreen binding assay (KRAS G12D); conditions: average of at least two measurements
[1] = tested on: ERK phosphorylation in NCI-H358 SOS2 KO cells (KRAS G12C); experiment: Erk phosphorylation assay; assay type: cell-based, human; conditions: Homo sapiens, NCI-H358, NCI-H358 SOS2 KO cells, EGF stimulated; average of at least two measurements; read-out: pERK IC50
Procedure, shortened: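 NCI-H358 SOS2 KO cells (KRAS G12C) in DMEM/2% FBS were pretreated 50 min with compound, then stimulated with EGF (approx. 8 ng/mL) for 10-15 min. pERK1/2 (Thr202/Tyr204) measured in lysates by AlphaLISA SureFire; IC50 from variable-slope fit, averaged over at least two measurements.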

CYP3A4 = CYP3A4 (Homo sapiens (Human), UniProt P08684); experiment: Mechanism-based inhibition of CYP3A4 assay (MBI 3A4); assay type: in vitro ADME; conditions: human, human liver microsomes, probe midazolam 15 μM (hydroxy-midazolam formation), midazolam substrate, hydroxy-midazolam formation after 30 min preincubation relative to 0 min, read-out: MBI inhibition % ctrl. [%] with MDZ
Procedure, shortened: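 Human liver microsomes (0.2 mg/mL) were preincubated with compound at 0, 5 or 25 μM plus 1 mM NADPH for 0, 10 or 30 min, then diluted 1:10 and incubated 10 min with 15 μM midazolam. Hydroxy-midazolam was measured by LC/MS-MS; readout is formation after 30 min relative to 0 min preincubation (%).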

SOS1 and KRAS G12C = SOS1 and KRAS G12C (Homo sapiens (Human), UniProt Q07889); experiment: KRAS::SOS1 AlphaScreen binding assay (KRAS G12C); conditions: average of at least two measurements
P450 3A4 = P450 3A4 (Homo sapiens (Human), UniProt P08684); experiment: Cytochrome P450 isoenzyme inhibition assay (P450 3A4, midazolam); assay type: in vitro ADME; conditions: human liver microsomes, Midazolam as substrate; read-out: CYP3A4 inhibition IC50
Procedure, shortened: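 Midazolam (5 μM) hydroxylation by human liver microsomes (0.1 mg/ml) in 0.1 M TRIS with 5 mM MgCl2, started with 1 mM NADPH. Five compound concentrations in duplicate, e.g. top 50 μM with 1:4 dilutions. Metabolite quantified by LC-MS/MS against internal standard; IC50 from inhibition relative to no-compound control.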

P450 3A4, sequence (P08684 whole entry): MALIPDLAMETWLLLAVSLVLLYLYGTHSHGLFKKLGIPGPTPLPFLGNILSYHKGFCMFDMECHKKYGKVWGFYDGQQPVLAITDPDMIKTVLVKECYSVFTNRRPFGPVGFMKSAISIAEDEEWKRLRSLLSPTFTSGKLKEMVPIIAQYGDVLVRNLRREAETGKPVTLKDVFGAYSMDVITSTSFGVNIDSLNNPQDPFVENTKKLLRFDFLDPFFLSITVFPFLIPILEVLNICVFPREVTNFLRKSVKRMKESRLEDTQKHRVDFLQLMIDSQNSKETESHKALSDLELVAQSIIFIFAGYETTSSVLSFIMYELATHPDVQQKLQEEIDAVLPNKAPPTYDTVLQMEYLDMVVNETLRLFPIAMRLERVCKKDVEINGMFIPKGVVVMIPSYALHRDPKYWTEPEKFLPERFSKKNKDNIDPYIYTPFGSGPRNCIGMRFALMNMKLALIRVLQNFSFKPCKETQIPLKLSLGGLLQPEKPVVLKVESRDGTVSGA
CYP3A4, sequence (P08684 whole entry): as above
SOS1 and KRAS G12D, sequence (Q07889 564-1049, stated change not applied): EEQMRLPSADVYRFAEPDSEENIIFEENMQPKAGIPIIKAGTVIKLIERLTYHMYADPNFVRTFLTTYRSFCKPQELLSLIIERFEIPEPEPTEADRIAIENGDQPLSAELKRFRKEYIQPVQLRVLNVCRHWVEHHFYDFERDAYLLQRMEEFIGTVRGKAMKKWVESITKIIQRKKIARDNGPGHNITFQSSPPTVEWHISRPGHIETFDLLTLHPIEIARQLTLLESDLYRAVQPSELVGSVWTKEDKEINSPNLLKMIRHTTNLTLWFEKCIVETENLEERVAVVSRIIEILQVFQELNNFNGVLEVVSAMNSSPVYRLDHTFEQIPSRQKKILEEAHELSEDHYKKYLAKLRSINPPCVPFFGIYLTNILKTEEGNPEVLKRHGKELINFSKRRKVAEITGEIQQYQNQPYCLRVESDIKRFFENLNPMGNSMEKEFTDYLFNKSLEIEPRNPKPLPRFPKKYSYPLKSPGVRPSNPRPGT
SOS1 and KRAS G12C, sequence (Q07889 564-1049, stated change not applied): as above

Hepatic clearance - QH[%] in human hepatocytes (human hepatocytes) [%] | IC50 (SOS1 and KRAS G12D) [nM] | IC50 [1] [nM] | inhibition at 30 min (CYP3A4) [%] | IC50 (SOS1 and KRAS G12C) [nM] | IC50 (P450 3A4) [nM] | Compound
15 | 44 | 174 | 96 | 61 | > 50000 | C[C@@H](NC(=O)c1cc(N2CCC3(CCCN3C)CC2)n2ncnc2c1)c1cccc(C(F)(F)F)c1F [Example E86]
24 | 46 | 261 | 95 | 56 | > 50000 | C[C@@H](NC(=O)c1cc(N2CCC(N3CCC(O)C(C)(O)C3)CC2)c2ncnn2c1)c1cccc(C(F)(F)F)c1F (stereo partly drawn) [Example cis-E29]

— patent US20250313560A1, “Novel bicyclic benzylamido pyridine derivatives as SOS1 inhibitors” (Boehringer Ingelheim International GmbH, priority 2024, published 2025)
